Data on 8 molecules can be found in PubChem BioAssay (NCI).

Structures are written as SMILES.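 1) Cells in 96-well plates. 2) Compound, 48 h, 5 concentrations. 3) Linear interpolation between surrounding doses. 4) Unreached endpoint = highest concentration. GI50: concentration for 50% inhibition of growth. The concentration for full growth arrest is given as TGI.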

What all share (test): NCI anticancer screen, dose series, 48 h
Test [1] has as its system 786-0 renal.
Test [2] relates to A498 renal.
Test [3] has as its system COLO 205 colon.
Test [4] relates to LOX IMVI melanoma.
Test [5] concerns OVCAR-4 ovarian.
In test [6] the test system is RPMI-8226 leukemia.
Test [7] deals with SF-295 CNS.
The test system of test [8] is SK-MEL-2 melanoma.
Test [9] deals with SK-MEL-28 melanoma.
In test [10] the test system is UACC-257 melanoma.

As to `N#Cc1nc2cc(F)c(F)cc2nc1-c1ccc(Cl)cc1`, the GI50 in [1] is 16.3 µM; in test [2] it was 82 µM; in [3], 26.9 µM; in [4], 1.32 µM; in test [5], more than 62 µM; in test [6], 6.17 µM. The GI50 in test [7] was 12.2 µM; in [8], 8.41 µM; in test [9], 22 µM; in test [10], 22.1 µM. In addition, the TGI in [1] was 43.9 µM; in test [2] it was more than 100 µM; in test [3], more than 100 µM; in test [4], 2.68 µM; in test [5], more than 100 µM; in [6], more than 100 µM. The TGI was 38.9 µM in test [7], 25.5 µM in test [8], more than 100 µM in [9] and more than 58.3 µM in test [10].
On to `COc1cc(-c2oc3c(OC)c(O)c(OC)c(O)c3c(=O)c2OC)ccc1O`, for which the TGI in [1], in test [2], in test [3], in test [4], in test [5] and in [6] was more than 100 µM in each case. The TGI in test [7] was more than 100 µM; in [8], 74.9 µM; in [9], more than 100 µM; in test [10], more than 100 µM.
Turning to `COc1ccc2c(c1)OC(N)=C(C#N)C2c1ccc(F)cc1` (stereo not given), the GI50 in test [1] is 3.96 µM; in test [2] it was 2.81 µM; in test [3] it was 1.74 µM; in test [4], 1.98 µM; in test [5] it was 6.59 µM; in test [6] it was 2.43 µM. In addition, the GI50 was 1.96 µM in [7], 0.633 µM in [8], 15.2 µM in test [9] and 24.5 µM in test [10]. For the same molecule, the TGI was more than 100 µM in [1]; 63.4 µM in [2]; 10.1 µM in [3]; more than 100 µM in test [4]; more than 100 µM in [5]; 19.9 µM in [6]. Besides, the TGI in test [7] was 37.2 µM; in [8] it was more than 100 µM; in test [9], more than 100 µM; in [10], more than 100 µM.
Regarding `CCOc1ccccc1NC(=O)C1=C(C)NC(C)=C(C(=O)Nc2ccccc2OCC)C1c1ccc(NC(C)=O)cc1`, the TGI in test [1] is more than 100 µM; in test [2] it was 88.9 µM; in test [3], 41.1 µM; in [4], more than 100 µM; in test [5], more than 100 µM; in [6] it was more than 100 µM. In addition, the TGI in test [7] is 71.5 µM; in test [8] it was 58.6 µM; in [9] it was more than 100 µM; in test [10], more than 100 µM.
`O=P1(O)c2ccccc2Nc2cc(C(F)(F)F)ccc21`: the TGI in test [1], in [2], in test [3], in test [4], in test [5] and in [6] was more than 100 µM in each case. The TGI in [7], in test [8], in test [9] and in [10] was more than 100 µM throughout.
In the case of `O=Cc1ccc(O)c2ncccc12`, the GI50 in test [1] was 13.4 µM; in [2], 25.4 µM; in test [3] it was 3.71 µM; in test [4], 2.31 µM; in [5], 2.91 µM; in [6], 2.2 µM. The GI50 in [7] was 2.12 µM; in [8] it was 25.8 µM; in [9], 7.14 µM; in test [10], 3.45 µM. For the same molecule, the TGI in test [1] is 73.2 µM; in test [2] it was more than 63.9 µM; in test [3], 17.5 µM; in test [4] it was more than 54.5 µM; in [5], more than 100 µM; in [6] it was 15.8 µM. Further, the TGI in test [7] was 13.1 µM; in test [8], more than 96 µM; in [9], more than 53.3 µM; in test [10], more than 53.1 µM.
`COc1cc([C@@H]2OC(=O)C3C2C(=O)O[C@H]3c2cc(OC)c(OC)c(OC)c2)cc(OC)c1OC` (stereo not given in full): the TGI in [1], in [2], in [3], in [4], in [5] and in test [6] was more than 100 µM in each case. The TGI in [7], in test [8], in test [9] and in [10] was more than 100 µM each time.
Turning to `C/C=C/C=C\C1OC(O)([C@H](CC)C(=O)NC/C=C/C=C(\C)[C@H](OC)C(C)C2OC(\C=C/C=C/C=C(\C)C(=O)c3c(O)ccn(C)c3=O)[C@H](O)[C@@H]2O)C(O)C(O)C1(C)C` (stereo not given in full), the TGI in [1], in test [2], in test [3], in test [4], in test [5] and in test [6] was more than 100 µM each time. Also, the TGI in [7], in test [8], in [9] and in test [10] was more than 100 µM in each case.
